In patent publication US9560848B2, “Method and compositions for biofouling deterrence” (Clemson University, priority 2008, dated 2017):

Columns and labels:
[1] = test system: Oyster larvae; experiment: Treatment of oyster larvae with micromolar concentrations of noradrenalin; type: in vivo
Source text: Effect of Treatment of Oyster Larvae with Micromolar Concentrations of Noradrenalin

[2] = test system: cyprids of the barnacle Balanus amphitrite; type: in vivo
Procedure: Barnacle cyprids were challenged with 30-100 micro molar ranges of noradrenalin. Barnacle cyprids were monitored and assayed over period of 120 hours (5 days). Cyprid metamorphosis was imaged at 24, 48, 96, 120 hour intervals. Images were taken at each intervals and samples preserved for SEM analysis. On the last day of the experiments the metamorphosed barnacles were assayed for viability. The experiments were repeated 4 times with 3 replicates per experiment. […] Post NA treatment, either by flash induction or by incubating the cyprids in ASW containing NA. […] The onset of ecdysis was observed between 24 hr and 48 hr post NA treatment. Metamorphosing juvenile barnacles were seen encased in bivalve cyprid carapace. The pumping action of the thorax similar to beating of cirri was also observed (Glenner and Høeg 1993). […] Some ecdysing barnacles were still encased in cyprid carapaces while others had shed the bivalve carapace. The cyprids that had shed carapace were presumed to have ‘grown’ out of it as opposed to have shed carapace voluntarily as observed in untreated attached cyprids (Glenner and Høeg 1993). […] Ninety-six hours post NA treatment, the operculum with tergal and scutal plates is well demarcated from the wall plates. In contrast, control barnacles can be seen fully calcified with well recognizable wall and opercular shell plates at around 24-48 hr post settlement. Thus the NA treated cyprids took 96 hr to fully metamorphose and calcify but remained unattached and un-cemented to the substratum.
Exploration of surfaces by invertebrate larvae is an important step leading to attachment and metamorphosis into juveniles. Oyster pediveliger larvae and barnacle cyprid larvae investigate surfaces using exploratory structures bearing an array of sensory cells. The effect of the neurotransmitter noradrenaline (NA) was investigated on the cyprids of the barnacle Balanus amphitrite. 1 day old cyprids were challenged with micro-molar concentrations of NA ranging from […] and assayed over 5 days. […] Remnants of cyprid organs such as the antennules were clearly visible in metamorphosed juveniles. […] Cyprids are compared to oyster larvae to understand the effects of NA on the signal transduction cascades involved in larval settlement and to explore NAs potential as a natural fouling deterrent. Materials and Methods One day old cypris larvae of the B. amphitrite were challenged with […] of noradrenaline. Cyprids were challenged in two different ways. One group was flash challenged for 3 hours then washed with artificial sea water (ASW) and incubated in ASW free of NA for the remaining duration of the experiment. The second group was incubated with NA for 24 hours then washed and incubated in ASW for the remaining duration of the experiment. Barnacle cyprids were monitored and assayed over period of 120 hours (5 days). Cyprid metamorphosis was imaged at 24, 48, 96, 120 hour intervals. Images were taken at each intervals and samples preserved for SEM analysis. The cyprid larvae were imaged using, Zeiss discovery V12 stereo-microscope, Nikon AZ100 stereo-macrosope and the Hitachi-4800 field emission scanning electron microscope. On the last day of the experiments the metamorphosed barnacles were assayed for viability. Viability was ascertained by observing the movement of cirri and ability of the metamorphosed barnacles to feed normally. The experiments were repeated 4 times with 3 replicates per experiment.

[3] = test system: Oyster larvae; settings: Coon, Bonar et al 1986; cited from earlier work

appearance of juvenile barnacles compared to controls ([2]; in vivo): appeared to be normal
Compound: NCC(O)c1ccc(O)c(O)c1 (racemic) [NA, DL-noradrenaline]
metamorphosis of treated oyster larvae [1]: metamorphose into adult oysters without cementation
settling behavior and cementation of oyster larvae [1]: complete disruption of the settling behavior and cementation
viability and development of treated oysters [1]: viable and develop normally into adults
metamorphosis of treated cyprids ([2]; 30-100 micro molar NA): metamorphosed into adults
settling, attachment or cementation of cyprids ([2]; 30-100 micro molar NA, flash challenge 3 hours or 24 hours incubation, monitored 120 hours, listed as noradrenalin): prevented them from settling or attaching to a surface
time to fully metamorphose and calcify ([2]; NA treated cyprids, controls 24-48 hr post settlement): 96 h
swimming of cyprids post NA treatment ([2]; flash induction or incubation in ASW containing NA): stopped swimming and sank to the bottom
onset of ecdysis post NA treatment ([2]; post NA treatment): 24 to 48 h
swimming of NA treated oyster larvae [3]: stopped swimming and sank to the bottom of petri dishes
